One assay has as its target Large T antigen (Simian virus 40, UniProt P03070). The assay is classed as functional, Betapolyomavirus macacae.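 Further: Confirmatory-stage PubChem screen for compounds that inhibit SV40 T antigen.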
Assay [1] in a line: intracellular Trypanosoma cruzi inhibitors in host cells – cell-based, plate reader, cherry-pick samples, set 3, dose response (AID 651818).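 Further: compounds incubated with infected cells for about four days.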 It counts as functional.
Assay [2] addresses T1, Polyadenylate-binding protein 1 (Homo sapiens, UniProt P11940). Description: MLLE binding blockers, Cy5 peptide tracer – biochemical, fluorescence polarization, Cy5-PAM2 peptide, secondary, miRNA deadenylation inhibitor project, dose response (AID 602260). It counts as functional. The following applies: read-out: IC50_Mean.
Assay [3] deals with T1, Polyadenylate-binding protein 1. Description: MLLE domain peptide-binding blockers, IC50 – biochemical, fluorescence polarization, FITC-PAM2 peptide, dose response (AID 602259). Particulars: read-out: IC50_Mean. It counts as functional. For orientation: In fluorescence polarisation assays a small probe gives low polarisation when free and higher when bound to something large.

Assay [4] in a line: microbe, parasite or virus in culture. The assay is classed as functional. The following applies: Mycobacterium tuberculosis.
Assay [5] can be described thus: reduction of Shn3 3'UTR-driven luciferase in osteoblasts – cell-based, Clone20 osteoblasts, firefly luciferase, cherry-picked, dose response (AID 624132).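 Further: firefly luciferase luminescence from reporter carrying the Shn3 3'UTR in osteoblasts.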 It counts as functional.
The nature of assay [6]: loss of viability in HepG2 cells – cell-based, CellTiter-Glo, cherry-picked, cytotoxicity control for Shn3 inhibitor project, dose response (AID 624134). It counts as functional.
Assay [7] in a line: non-specific 3'UTR reporter inhibition in Clone20-Shn3RL – cell-based, Renilla luciferase, cherry-picked, counter-screen for Shn3 inhibitor project, dose response (AID 624133). The assay is classed as functional.
Assay [8] is described as follows: blockers of HIV-1 envelope-mediated cell-cell fusion – cherry-pick, dose response (AID 652057). The assay is classed as functional, cell-based.
Assay [9] in a line: blockers of HIV-1 ZM109 envelope-driven cell-cell fusion – HeLa effector, CEM target cells, luciferase, cherry-pick, dose response (AID 652058).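 Further: luciferase signal from HIV-1 Env mediated cell-cell fusion of effector and target cells.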 The assay is classed as functional, cell-based.
The nature of assay [10]: HIV-1 AD8 envelope cell-cell fusion blockers – cherry-pick, dose response (AID 652062).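 Further: luciferase signal from cell-cell fusion driven by HIV-1 clade B AD8 Env; potency is for inhibitors of fusion seen as a drop in luminescence.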 The assay is classed as functional, cell-based.
The target of assay [11] is Voltage-dependent T-type calcium channel subunit alpha-1H (Homo sapiens, UniProt O95180). It counts as functional.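 Further: channel activity triggered by adding a high calcium stimulation buffer.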
For assay [12], the target named is FAD-linked sulfhydryl oxidase ALR (Homo sapiens, UniProt P55789). Description: ALR-catalysed DTT oxidation blockers – biochemical, H2O2 detection, luminescence, cherry-pick, dose response (AID 493248).
A short description of assay [13]: Trypanosoma cruzi growth suppression in host cells – NIH3T3 host cells, beta-gal luminescence, confirmation (AID 2044).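 Further: intracellular parasites grown in NIH/3T3 mouse fibroblasts as host cells; luminescent beta-galactosidase reporter signal from transgenic T. cruzi replicating inside host cells; inhibitors lower the luminescence signal.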 It counts as functional, cell-based.
Assay [14] is described as follows: viability of PTEN-deleted HCT116 cells – cell-based, HCT116 PTEN knockout, dose response (AID 1047).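 Further: HCT116 colon tumor cells with PTEN knocked out; cells exposed to compound for 60 hours before readout; potency for loss of cell viability measured by luminescence.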 It counts as functional.
Assay [15] can be described thus: NIH3T3 cell viability loss – ATP luminescence, mouse fibroblasts, counter-screen, dose response (AID 2010).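 Further: cells exposed to compound for about 90 hours before reading.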 The assay is classed as functional, cell-based. On the technique in general: A counterscreen serves to expose hits that act by an unwanted route or on another target.
The nature of assay [16]: viability of HCT116 lacking mutant beta-catenin – cell-based, human colon tumor, dose response (AID 1045).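 Further: HCT116 colon tumor cells with beta catenin knocked out; cells exposed to compound for 60 hours.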 It counts as functional.
Assay [17] addresses T2, DNA repair protein RAD52 homolog (Homo sapiens, UniProt P43351).
T2 sequence (P43351 whole entry): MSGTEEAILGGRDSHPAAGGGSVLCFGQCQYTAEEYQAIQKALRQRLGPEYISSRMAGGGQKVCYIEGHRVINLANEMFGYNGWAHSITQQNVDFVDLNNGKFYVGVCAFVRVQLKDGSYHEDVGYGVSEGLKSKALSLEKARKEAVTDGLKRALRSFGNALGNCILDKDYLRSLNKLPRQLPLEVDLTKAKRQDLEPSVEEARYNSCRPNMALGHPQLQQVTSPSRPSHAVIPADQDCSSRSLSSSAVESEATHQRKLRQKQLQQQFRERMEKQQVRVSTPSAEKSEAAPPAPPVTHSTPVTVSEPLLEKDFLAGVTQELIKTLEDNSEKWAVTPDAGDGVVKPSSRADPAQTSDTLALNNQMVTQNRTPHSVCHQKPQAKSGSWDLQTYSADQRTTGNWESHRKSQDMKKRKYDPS
It counts as functional, biochemical.

The nature of assay [18]: viability loss in THP-1 monocytes – THP-1 cells, cytotoxicity control for Vif-APOBEC3G degradation inhibitor project, dose response (AID 1117359). The assay is classed as functional. Particulars: THP-1.
Assay [19] can be described thus: Luminescence Cell-Based Dose Retest to Confirm Inhibitors of Cancer Stem Cells. [Related pubchem assays (depositor defined):AID2717, AID2721]. It counts as functional. Particulars: Homo sapiens.
Assay [20] can be described thus: NIH-3T3 fibroblast cytotoxicity, dose response, cytotoxicity control, cell-based, fluorescence, Alamar Blue, secondary assay (AID 2327).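 Further: NIH-3T3 mouse fibroblasts cultured with fluconazole at 8 µg/mL.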 It counts as functional. On the technique in general: The colour change of resazurin is a common sign of viable cells or microbes.
The nature of assay [21]: luciferase reporter signal suppression in cells – H4 neuroglioma cells, luminescence, dose response (AID 1990). The assay is classed as functional, cell-based.
The nature of assay [22]: Luminescence Cell-Based Dose Response HTS to Identify Inhibitors of 5'UTR Stem-Loop Driven Prion Protein mRNA Translation in H4 Neuroglioblastoma Cells. [Related pubchem assays: 1827 (Project Summary), 1813 (Primary HTS)]. The assay is classed as functional.
Assay [23] in a line: alpha-synuclein stem-loop luciferase translation blockers – H4 neuroglioma cells, luminescence, confirmation (AID 1988). It counts as functional, cell-based.
The nature of assay [24]: fluconazole-exposed Candida albicans growth modulators – fluorescence, retest, confirmation (AID 2467). It counts as functional, cell-based.
Another assay addresses T3, Protein skinhead-1 (Caenorhabditis elegans, UniProt P34707).
T3 sequence (P34707 whole entry): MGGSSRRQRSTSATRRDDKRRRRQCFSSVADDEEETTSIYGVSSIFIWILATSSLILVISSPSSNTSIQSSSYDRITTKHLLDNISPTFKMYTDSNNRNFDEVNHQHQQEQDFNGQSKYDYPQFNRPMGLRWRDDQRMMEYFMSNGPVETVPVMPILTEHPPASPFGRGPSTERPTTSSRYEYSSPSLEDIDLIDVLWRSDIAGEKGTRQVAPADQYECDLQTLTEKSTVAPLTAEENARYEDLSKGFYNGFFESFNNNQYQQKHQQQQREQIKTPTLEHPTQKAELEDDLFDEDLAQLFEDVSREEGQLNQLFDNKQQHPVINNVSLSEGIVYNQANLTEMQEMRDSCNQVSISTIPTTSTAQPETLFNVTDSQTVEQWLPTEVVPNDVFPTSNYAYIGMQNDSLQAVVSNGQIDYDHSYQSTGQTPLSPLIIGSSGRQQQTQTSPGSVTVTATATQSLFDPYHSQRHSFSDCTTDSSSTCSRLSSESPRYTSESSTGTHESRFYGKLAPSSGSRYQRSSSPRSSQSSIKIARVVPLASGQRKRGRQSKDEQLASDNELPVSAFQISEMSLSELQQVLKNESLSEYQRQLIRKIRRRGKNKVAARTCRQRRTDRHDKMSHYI
It counts as functional.

Structures are written as SMILES. Active and inactive are the calls of the source. A value given as a limit tells only on which side of the number the result lay.

Chain of Large T antigen (P03070 whole entry): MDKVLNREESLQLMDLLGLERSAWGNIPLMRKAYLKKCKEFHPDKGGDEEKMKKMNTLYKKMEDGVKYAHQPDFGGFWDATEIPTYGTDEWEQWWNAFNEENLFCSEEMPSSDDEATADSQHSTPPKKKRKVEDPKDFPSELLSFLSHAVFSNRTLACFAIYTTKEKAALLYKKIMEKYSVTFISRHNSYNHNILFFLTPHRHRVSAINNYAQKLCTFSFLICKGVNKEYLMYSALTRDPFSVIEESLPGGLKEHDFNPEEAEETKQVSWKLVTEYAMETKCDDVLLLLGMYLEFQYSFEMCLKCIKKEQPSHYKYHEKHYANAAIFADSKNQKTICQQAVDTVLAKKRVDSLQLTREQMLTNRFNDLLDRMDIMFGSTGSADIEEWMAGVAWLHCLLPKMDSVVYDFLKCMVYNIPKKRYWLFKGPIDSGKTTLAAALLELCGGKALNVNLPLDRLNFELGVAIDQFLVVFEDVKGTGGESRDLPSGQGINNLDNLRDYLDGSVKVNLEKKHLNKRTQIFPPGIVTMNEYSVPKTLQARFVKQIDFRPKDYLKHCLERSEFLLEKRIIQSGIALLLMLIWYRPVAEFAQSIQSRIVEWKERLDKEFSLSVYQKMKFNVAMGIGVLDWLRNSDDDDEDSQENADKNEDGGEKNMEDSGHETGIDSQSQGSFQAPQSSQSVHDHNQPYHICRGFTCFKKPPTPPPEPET
T1 sequence (P11940 whole entry, the tested form may be a part): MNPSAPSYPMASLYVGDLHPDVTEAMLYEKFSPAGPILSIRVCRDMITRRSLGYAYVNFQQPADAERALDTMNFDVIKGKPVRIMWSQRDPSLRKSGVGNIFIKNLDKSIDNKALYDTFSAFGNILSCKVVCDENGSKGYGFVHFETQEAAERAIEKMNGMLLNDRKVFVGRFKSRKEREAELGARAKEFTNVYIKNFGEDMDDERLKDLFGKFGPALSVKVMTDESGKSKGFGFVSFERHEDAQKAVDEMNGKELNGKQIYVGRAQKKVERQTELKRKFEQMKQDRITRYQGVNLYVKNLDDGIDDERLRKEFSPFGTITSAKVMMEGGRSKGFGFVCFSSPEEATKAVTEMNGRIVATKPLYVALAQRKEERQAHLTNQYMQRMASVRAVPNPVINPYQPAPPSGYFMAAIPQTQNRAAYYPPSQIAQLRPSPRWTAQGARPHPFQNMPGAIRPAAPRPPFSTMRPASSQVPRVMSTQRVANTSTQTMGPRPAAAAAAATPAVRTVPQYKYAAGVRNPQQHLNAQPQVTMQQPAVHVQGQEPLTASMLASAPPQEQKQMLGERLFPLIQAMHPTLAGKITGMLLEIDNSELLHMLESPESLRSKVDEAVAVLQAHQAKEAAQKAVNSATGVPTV
Chain of Voltage-dependent T-type calcium channel subunit alpha-1H (O95180 whole entry): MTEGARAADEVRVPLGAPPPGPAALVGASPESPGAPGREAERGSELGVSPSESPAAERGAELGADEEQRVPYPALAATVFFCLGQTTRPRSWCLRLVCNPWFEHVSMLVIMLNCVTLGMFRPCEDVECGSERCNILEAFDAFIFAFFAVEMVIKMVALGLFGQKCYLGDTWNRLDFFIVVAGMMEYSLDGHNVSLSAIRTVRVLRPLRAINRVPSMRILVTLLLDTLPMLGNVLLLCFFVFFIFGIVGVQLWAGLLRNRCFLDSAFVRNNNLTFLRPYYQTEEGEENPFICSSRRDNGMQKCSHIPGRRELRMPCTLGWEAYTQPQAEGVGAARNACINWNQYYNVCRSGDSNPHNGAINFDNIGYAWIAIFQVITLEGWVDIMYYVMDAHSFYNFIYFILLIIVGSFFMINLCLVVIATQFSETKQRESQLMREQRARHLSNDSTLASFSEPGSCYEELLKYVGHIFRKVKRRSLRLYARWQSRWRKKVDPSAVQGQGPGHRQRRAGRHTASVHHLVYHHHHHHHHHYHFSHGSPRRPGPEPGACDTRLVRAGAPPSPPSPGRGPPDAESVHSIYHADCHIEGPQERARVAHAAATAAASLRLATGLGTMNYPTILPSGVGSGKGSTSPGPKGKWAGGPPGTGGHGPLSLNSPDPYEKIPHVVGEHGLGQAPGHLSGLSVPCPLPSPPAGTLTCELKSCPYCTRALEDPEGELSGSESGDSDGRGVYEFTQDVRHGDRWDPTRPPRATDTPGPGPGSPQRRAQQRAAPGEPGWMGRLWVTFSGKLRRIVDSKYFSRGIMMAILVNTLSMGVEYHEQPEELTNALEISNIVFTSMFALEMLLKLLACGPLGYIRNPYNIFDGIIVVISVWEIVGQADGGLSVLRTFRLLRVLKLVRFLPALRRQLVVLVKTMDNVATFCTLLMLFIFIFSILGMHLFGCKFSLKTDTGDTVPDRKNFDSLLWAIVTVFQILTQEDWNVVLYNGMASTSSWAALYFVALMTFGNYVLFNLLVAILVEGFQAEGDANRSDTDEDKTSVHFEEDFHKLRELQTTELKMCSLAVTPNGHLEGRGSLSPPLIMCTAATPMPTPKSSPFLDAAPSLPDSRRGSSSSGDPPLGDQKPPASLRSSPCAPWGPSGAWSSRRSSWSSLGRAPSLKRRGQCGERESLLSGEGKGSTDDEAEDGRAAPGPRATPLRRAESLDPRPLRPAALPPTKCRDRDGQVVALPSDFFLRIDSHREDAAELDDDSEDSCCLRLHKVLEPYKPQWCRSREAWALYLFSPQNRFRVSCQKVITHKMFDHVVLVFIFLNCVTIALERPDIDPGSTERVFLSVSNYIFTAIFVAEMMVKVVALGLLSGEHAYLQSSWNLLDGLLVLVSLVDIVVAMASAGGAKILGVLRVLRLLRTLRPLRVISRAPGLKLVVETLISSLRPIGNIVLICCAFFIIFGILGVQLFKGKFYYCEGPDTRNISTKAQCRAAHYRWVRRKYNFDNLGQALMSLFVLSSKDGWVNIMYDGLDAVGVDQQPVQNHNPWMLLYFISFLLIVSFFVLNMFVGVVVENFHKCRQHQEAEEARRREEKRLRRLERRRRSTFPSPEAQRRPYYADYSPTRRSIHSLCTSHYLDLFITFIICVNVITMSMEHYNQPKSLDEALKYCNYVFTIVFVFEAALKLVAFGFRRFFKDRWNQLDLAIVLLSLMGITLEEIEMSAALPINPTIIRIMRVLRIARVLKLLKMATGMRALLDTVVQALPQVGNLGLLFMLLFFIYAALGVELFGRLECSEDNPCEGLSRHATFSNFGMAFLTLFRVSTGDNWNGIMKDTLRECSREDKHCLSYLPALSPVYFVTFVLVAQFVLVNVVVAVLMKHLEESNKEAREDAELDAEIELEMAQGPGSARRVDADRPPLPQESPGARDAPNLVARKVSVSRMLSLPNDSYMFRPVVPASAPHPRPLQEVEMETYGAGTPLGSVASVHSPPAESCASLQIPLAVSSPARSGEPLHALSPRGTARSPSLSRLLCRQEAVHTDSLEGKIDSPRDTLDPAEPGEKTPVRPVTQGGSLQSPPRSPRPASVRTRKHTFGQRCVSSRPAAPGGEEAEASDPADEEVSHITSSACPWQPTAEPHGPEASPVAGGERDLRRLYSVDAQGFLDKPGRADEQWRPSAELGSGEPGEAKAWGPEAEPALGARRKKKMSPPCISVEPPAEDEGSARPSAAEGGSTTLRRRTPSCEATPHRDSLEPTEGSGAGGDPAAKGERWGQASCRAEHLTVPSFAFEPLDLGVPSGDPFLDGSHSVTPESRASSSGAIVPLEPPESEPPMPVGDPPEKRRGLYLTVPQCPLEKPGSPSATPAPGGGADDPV
Chain of FAD-linked sulfhydryl oxidase ALR (P55789 whole entry): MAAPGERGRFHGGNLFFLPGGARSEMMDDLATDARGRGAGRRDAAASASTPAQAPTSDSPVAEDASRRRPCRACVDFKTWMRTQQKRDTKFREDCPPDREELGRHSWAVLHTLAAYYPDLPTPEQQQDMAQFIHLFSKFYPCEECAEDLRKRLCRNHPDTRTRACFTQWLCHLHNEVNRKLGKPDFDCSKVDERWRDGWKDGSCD

Regarding `O=C(CCc1ccc(O)c(O)c1)NN=C(S)Nc1ccc(Br)cc1Cl`, the IC50 at Large T antigen was > 100 µM (active).
Broadly, the AC50 is the concentration at which the activity in the assay is half-maximal. `C[C@H]1CN([C@@H](C)CO)C(=O)Cc2cc(NC(=O)Cc3cn(C)c4ccccc34)ccc2O[C@@H]1CN(C)Cc1ccc(-c2ccccc2)cc1`: the AC50 in [1] was 1.72 µM (active).
As for `COc1ccc(NC(=O)CSc2ccccc2)cn1`, the results for the IC50 in [2] and in [3] were 33.4 µM (inactive) and 41.7 µM (inactive), respectively.
Consider `Cc1ccc(Cl)cc1N1CCN(C(=O)C2CCC(=O)N(C3CCCCCC3)C2)CC1` (stereo unspecified), for which, in assay [4], the CC50 is > 40 µM (active). The concentration at half-maximal activity (AC50) in assay [5] is 3.14 µM (active); in [6] it was 54.8 µM (active); in assay [7], 3.41 µM (active).
For `C[C@@H]1CN([C@H](C)CO)C(=O)Cc2cc(NC(=O)Nc3ccccc3)ccc2O[C@@H]1CN(C)Cc1ccc(Oc2ccccc2)cc1`, the AC50 in assay [1] was 3.76 µM (active).
Consider `COc1ccc(NC(=O)Nc2ccc3c(c2)CC(=O)N([C@@H](C)CO)C[C@H](C)[C@H](CN(C)S(=O)(=O)c2cccs2)O3)cc1`, for which the AC50 is 12 µM (active) in assay [8], 13.2 µM (active) in assay [9] and 27.1 µM (active) in assay [10].
`COc1ccc(S(=O)(=O)N(C)C[C@H]2Oc3ccc(NS(=O)(=O)c4ccc(C)cc4)cc3CC(=O)N([C@H](C)CO)C[C@H]2C)cc1`: the AC50 in assay [1] is 3.72 µM (active).
In general, EC50 refers to the midpoint of the concentration-response curve. Take `CC(C)NC(C(=O)Nc1cc(Cl)cc(Cl)c1)c1ccccc1` (stereo unspecified): the 50% effective concentration (EC50) in assay [11] is 3.62 µM (active).
`O=C(CN1CCN(C(=O)c2ccco2)CC1)Nc1ccc(Cl)c(C(F)(F)F)c1`: the EC50 in assay [11] was 3.47 µM (active).
For the compound `C[C@@H]1CCCCO[C@@H](CN(C)Cc2ccc(Cl)c(Cl)c2)[C@@H](C)CN([C@H](C)CO)C(=O)c2cc(NC(=O)Nc3ccccc3)ccc2O1`, the AC50 in [1] is 3.82 µM (active).
Take `O=C(Nc1ccccc1-c1ccccc1)c1ccc(Br)o1`: the EC50 in [11] is 7.47 µM (active).
Take `Oc1ccc(-c2cn3ccccc3n2)cc1`: the IC50 at Large T antigen is > 100 µM (active). In addition, the AC50 in [12] was 0.097 µM (active).
With `COc1ccc(S(=O)(=O)N2CCOC2CNC(=O)C(=O)NCCc2c[nH]c3ccccc23)cc1C` (stereo unspecified), in assay [11], the EC50 is 3.31 µM (active).
Regarding `O=C1c2ccccc2C(Nc2cccc(C(F)(F)F)c2)N1Cc1ccco1` (stereo unspecified), the EC50 in assay [11] is 3.9 µM (active).
On to `CC1CCN(c2ccccc2NC(=S)NC(=O)c2ccc(-c3cccc([N+](=O)[O-])c3)o2)CC1`, for which the IC50 in assay [2] and in assay [3] was > 66 µM (inactive) each time. Moreover, the AC50 in assay [5] was 3.07 µM (active); in [6], > 70 µM (inactive); in assay [7] it was 3.38 µM (active).
Regarding `Cc1cc(C)n(CCOC(=O)C2C(C=C(Cl)Cl)C2(C)C)n1` (stereo unspecified), the EC50 in assay [11] was 4.86 µM (active).
As to `CN(C)CCCN(C(=O)c1ccc2c(c1)CCCC2)c1nc2c(F)cccc2s1`, the EC50 was 0.164 µM (active) in assay [13], 27 µM (active) in assay [14], > 60 µM (not active) in assay [15] and 30 µM (active) in assay [16]. For the same compound, the AC50 in assay [17] is 35.2 µM (active).
As for `COc1ccccc1CNCC(=O)Nc1ccc(N2CCOCC2)cc1`, in [18], the CC50 is 30.7 µM (active).
For `CCN(CC)S(=O)(=O)c1ccc(Cc2ncc(C(F)(F)F)cc2Cl)s1`, the EC50 in assay [11] was 9.84 µM (active).
Regarding `C[C@H]1CN([C@@H](C)CO)C(=O)Cc2cc(NC(=O)Nc3ccc4c(c3)OCO4)ccc2O[C@@H]1CN(C)Cc1ccc(C(=O)Nc2ccccc2N)cc1`, the AC50 in assay [1] is 2.13 µM (active).
Turning to `O=C(COc1cccc(C(F)(F)F)c1)N1CCN(c2ccc(O)cc2)CC1`, the IC50 at Large T antigen was 9.68 µM (active). In assay [19], the AC50 was 7.3 µM (active).
In the case of `COc1cccc(S(=O)(=O)N(C)C[C@H]2Oc3cc(C#CCC(C)C)ccc3S(=O)(=O)N([C@@H](C)CO)C[C@H]2C)c1`, the figures for the AC50 in assay [8], in assay [9] and in assay [10] were 25.1 µM (active), 10.6 µM (active) and 34.2 µM (active), respectively.
On to `COc1ccc(-c2nc(CN3CCN(c4cc(C)nc(C)c4)CC3)c(C)o2)c2ccccc12`, for which the EC50 is > 160 µM (inactive) in assay [20]; 20.9 µM (active) in assay [21]; > 120 µM (not active) in assay [22]; 10.7 µM (active) in [23]; 3.22 µM (active) in [24]. The CC50 in assay [4] was 11.5 µM (active). Also, the AC50 in [17] is 7 µM (active).
`C[C@H](CO)N1C[C@H](C)[C@@H](CN(C)Cc2ccc(C(F)(F)F)cc2)Oc2c(NC(=O)NC3CCCCC3)cccc2C1=O`: in [1], the AC50 was 3.92 µM (active).
As to `Cc1ccc(C)c(-c2nn(-c3cc(N4CCN(CCO)CC4)ccc3[N+](=O)[O-])c(=O)c3ccccc23)c1`, the results for the EC50 in assay [13] and in assay [15] were 2.23 µM (active) and > 60 µM (not active), respectively. Further, in [4], the CC50 is 31.4 µM (active).
As for `NCCCC[C@H]1CN=C(N)N1CCC12CC3CC(CC(C3)C1)C2`, in assay [17], the AC50 was 23.3 µM (active).
Take `COc1ccccc1OCC(=O)NCCNC(=O)COc1ccccc1OC`: the IC50 in assay [2] and in [3] was > 66 µM (inactive) each time.
As for `CC(C)(C)NCC(O)CON=C1c2ccccc2-c2ccccc21` (stereo unspecified), the AC50 in assay [17] was 20.1 µM (active).
With `Cc1c(C(=O)NCCC2=CCCCC2)oc2ccc(S(=O)(=O)N3CCOCC3)cc12`, the EC50 in [14] is 19.2 µM (active); in assay [16] it was 31.7 µM (active). Moreover, the IC50 at Protein skinhead-1 is > 100 µM (inactive).
As for `NC(=O)OCCSc1nnc(-c2cccc(C(N)=S)c2)o1`, the IC50 in [2] and in assay [3] was > 66 µM (inactive) throughout.
Take `O=[N+]([O-])c1ccc(C2Oc3ccccc3C3CC(c4ccccc4)=NN32)s1` (stereo unspecified): in assay [4], the CC50 is 31.5 µM (active).

The record behind these values is ChEMBL document CHEMBL1201862, “PubChem BioAssay data set” (2004).
